Test results: patent US6489351B1, “Condensed 4,5,6,7-tetrahydrobenzo[C]thiophenes as enhancer for cell differentation induction factor action” (Takeda Chemical Industries, Ltd., priority 1996, dated 2002)

How the values were obtained:
[1] = system: Chondrocytes, prepared from rabbit rib cartilage; experiment: Anti-collagenase action in rabbit chondrocytes (IL-1-induced collagenase production); assay type: cell-based; details: IL-1 30 ng/ml added, 48 hours, mean±SE, control with IL-1 21.9 ± 1.7, without IL-1 0.1 ± 0.1
Experimental: Chondrocytes, prepared from rabbit rib cartilage, were suspended in Dulbecco's MEM (DMEM) supplemented with 10% FCS, sown to 12-well plates, and cultured until a confluent state was reached. After the culture broth was removed, the cells were cultured for 48 hours in serum-free DMEM containing IL-1 (30 ng/ml) and the sample compound. The collagenase produced upon induction by IL-1 stimulation and secreted in the culture broth was activated by trypsinization; after a soybean trypsin inhibitor was added to inactivate the trypsin, activity was determined with type I collagen as the substrate. The values obtained are given in mean±SE in Table 3. The data were statistically analyzed by Student's t-test.

CSc1oc(C(=O)O)c2c1-c1nc(-c3ccccc3)sc1CC2 [Example 25, 4,5-dihydro-8-methylthio-2-phenylfuro[3,4-e]benzothiazole-6-carboxylic acid]
Collagenase Activity (units/ml) ([1]; compound 10^−5 M): 1.8 ± 0.6 units/ml | Collagenase Activity (units/ml) ([1]; compound 10^−6 M): 11.0 ± 0.8 units/ml | melting point: 206 to 207 °C (dec.)
